Measured values as given in patent US11274144B2, “Compositions and methods for the removal of biofilms” (priority 2013, dated 2022).

How the values were obtained:
NTHI biofilms = assay: synergism on pre-formed NTHI biofilms (FIGS. 14A-14C); format: cell-based
Method: To this end the ability to induce augmented structural destabilization of pre-formed NTHI biofilms was assessed when a sub-optimal concentration of anti-IHF was used along with one of each of three unique reagents.

IHF = biological target: T1, IHF (Escherichia coli, UniProt P0A6X7+P0A6Y1); assay: antibody response after subcutaneous immunization of chinchillas (Western blot, ELISA); format: in vivo, E. coli; conditions: chinchilla
T1 construct: IHF promoter purified from E. coli K12 (the full length combination of both IHF subunits); made in house; host or cells: E. coli overproducing strains (lambda PL promoter plasmids, e.g. K5746 / E738)
Text: Each animal received a priming dose followed by two identical boosts delivered at 30-day intervals.

NTHI strain 86-028NP = test system: NTHI strain 86-028NP
Method: 48 adults were ordered from Rauscher's Chinchilla Ranch (LaRue, Ohio) and were acclimated to the vivarium for 7-10 days prior to the beginning of the study. Prior to TB [transbullar or direct challenge into the middle ear cavity] challenge, baseline otoscopy and tympanometry were performed as well as a limited volume prebleed to collect serum. Chinchillas were anesthetized and 300 μl of NTHI (strain #86-028NP) suspension containing approximately 1000 cfu were introduced into the middle ear space via transbullar challenge. Animals were allowed to recover, then monitored daily for adverse reactions as per IACUC accepted animal use protocols. Routine otoscopy and tympanometry were performed every 2-3 days throughout the study.
Four days after challenge (day +4), chinchillas were anesthetized and a CT scan was performed to visualize biofilms present within the middle ear and to obtain pre-immunization images. The surface of the pinnae were cleaned and hydrated by wiping with a sterile gauze pad moistened with sterile pyrogen free saline. After ˜2 minutes (to allow the pinnae to dry), 50 μl of either the dmLT, IHF (purified E. coli IHF according to Experiment 1)+dmLT, or IHF+rsPiLA+dmLT solution will be added to the pinna and gently massaged in. Three chinchillas per cohort were sacrificed and tissues/samples collected (on days +4, and +11) to begin to determine mechanism of action.
Eleven days after challenge (day +11), the secondary immunization occurred as described above wherein the pinnae are cleaned/hydrated and immunogens were topically administered. Three chinchillas per cohort were sacrificed and tissues/samples collected to begin to determine mechanism of action.
Eighteen days after challenge (day +18), chinchillas were anesthetized and a CT scan were performed to identify any biofilms present, as well as to compare to the pre-immunization CT scans. The animals were then bled to collect serum and euthanized. […] Images were collected and the bulla were washed with 1 ml of sterile saline and re-imaged. The mucosa, along with any biofilm present, were collected from the right bulla and placed in a preweighed tube. These tissues were homogenized, serially diluted, and plated to determine cfu NTHI/mg wet weight tissue. The left bullae were filled with OCT compound and snap frozen for histological analysis.
Images of the left and right middle ear cavities, with resident biofilms, were scrambled and two images per animal were compiled into a single file for ranking by blinded evaluators. The relative amount of biomass remaining within the middle ear of each animal was ranked on a 0 to 4+ scale by blinded reviewers using the scale shown in Table 6 below. Titer ELISAs, cytokine arrays, and Biacore were run on the serum as well as on the collected middle ear effusions. The OCT embedded middle ears were sectioned and stained either for basic morphology and architecture (H&E) or for the presence of IHF using immunohistochemistry and/or immunofluorescence.
For the second animal immunization study, twenty adult chinchillas (body mass between 500-700 g), shown to have no evidence of middle ear disease by tympanometry and video otoscopy, were enrolled and divided into four cohorts of 5 animals each. All animals were again challenged transbullarly with approximately 1000 CFU NTHI strain 86-028NP per bulla. Four days later, after a biofilm formed in the middle ear cavities of these animals, they were immunized by a transcutaneous route (TCI) as described above. Formulations consisted of either: 10 μg IHF admixed with 10 μg dmLT, 10 μg IHF that had been pre-bound to DNA+dmLT, DNA+dmLT, or 10 μg dmLT alone.
Middle ears were again subsequently scored from 0 to 4+ for disease severity upon completion of the study.

dsDNA = conditions: DNA (10 μM) to IHF (5 μM); FIG. 11
Method: Middle ears were again subsequently scored from 0 to 4+ for disease severity upon completion of the study. To better assure that the IHF and DNA remained in complex for immunization, synthetic oligonucleotides identical to those used in the published co-crystallization study (see for e.g., Rice et al. (1996) Cell 87(7): 1295-1306) of a high affinity IHF binding site from the bacteriophage lambda recombination site attP at a molar ratio of 2:1 [DNA (10 μM) to IHF (5 μM)] was used.

[1] = BIACORE epitope mapping with antiserum of chinchillas immunized with IHF pre-complexed to DNA; format: binding, chinchilla; conditions: BIACORE biosensor
Text: (§1) To test this hypothesis, additional cohorts of chinchillas were immunized with either native full length IHF from E. coli (obtained from Nash) or with native full length IHF from E. coli (obtained from Nash) that had been complexed to an excess of double stranded DNA in order to best mimic how it would be presented in nature.

[2] = BIACORE epitope mapping with antiserum of chinchillas immunized with native IHF; format: binding, chinchilla; conditions: BIACORE biosensor
Text: as §1

[3] = biological target: Haemophilus influenzae IHF (Haemophilus influenzae, UniProt P43723); conditions: also known as IhfA5; cited from earlier work
Staphylococcus aureus HU = Staphylococcus aureus HU (Staphylococcus aureus, UniProt Q5HFV0); conditions: cited from earlier work
[4] = amoxicillin 64 μg/ml, IHF antisera 1:50 dilution
[5] = first study, transcutaneous immunization

T1 sequence (P0A6X7 2-99): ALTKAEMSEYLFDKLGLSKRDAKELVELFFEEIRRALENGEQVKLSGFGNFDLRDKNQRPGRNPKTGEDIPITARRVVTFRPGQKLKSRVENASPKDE
T1 sequence (P0A6Y1 whole entry): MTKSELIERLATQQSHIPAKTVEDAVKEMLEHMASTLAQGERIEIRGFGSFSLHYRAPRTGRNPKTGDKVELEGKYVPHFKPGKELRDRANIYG

**Q.** Which results are given for `CC1(C)S[C@@H]2[C@H](NC(=O)[C@H](N)c3ccc(O)cc3)C(=O)N2[C@H]1C(=O)O` [amoxicillin]?
**A.** bacterial cell death in biofilm (vital dye, FIG. 14C) (NTHI biofilms; [4]): limited bacterial cell death; effect on architecture/height of pre-formed NTHI biofilm (FIG. 14C) (NTHI biofilms; [4]): no measurable effect on the architecture

**Q.** Which “effect on pre-formed NTHI biofilm (FIG. 14A)” value (NTHI biofilms; DNase at sub-optimal concentration, anti-IHF 1:200 dilution) does the source give for DNase here?
**A.** marginal effect

**Q.** With “E. coli IHF: purified E. coli integration host factor, full length combination of both subunits, used as immunogen with adjuvant” as the molecule, how does the “reciprocal titer versus isolated IHF by ELISA” value (IHF; SQ immunization 10 μg with MPL, pre-immune reciprocal titers 100) read?
**A.** 8000

**Q.** And the “antibodies recognizing IHF by Western blot” value (IHF; SQ immunization with MPL, FIG. 13)?
**A.** strong immune response to isolated IHF

**Q.** And the “mean score for remaining biomass within the middle ears” value (NTHI strain 86-028NP; first study, 2 weekly transcutaneous immunizations with dmLT adjuvant, day 18 after challenge, adjuvant only 2.8, 0 to 4+ scale)?
**A.** 1.5

**Q.** And the “bacterial load within remaining biomass” value (NTHI strain 86-028NP; first study, homogenized biomass cultured on chocolate agar, vs adjuvant alone, FIG. 10B)?
**A.** statistically significant reduction of bacterial load

**Q.** And the “immune response to immunization” value (NTHI strain 86-028NP; [5])?
**A.** strong local and systemic immune response

**Q.** What about the “secondary sequelae of immunization noted upon necropsy” value (NTHI strain 86-028NP; [5]) of the same molecule?
**A.** no animal presented with obvious secondary sequelae

**Q.** And the “resolution of experimental otitis media” value (NTHI strain 86-028NP; in vivo)?
**A.** eradicating experimental otitis media significantly earlier than controls

**Q.** What about the “mean residual middle ear biomass score” value (NTHI strain 86-028NP; second study, TCI, 10 μg with 10 μg dmLT, adjuvant alone 2.2, 0 to 4+ scale, FIG. 12) of the same molecule?
**A.** 0.9

**Q.** What about the “binding of dsDNA (reduced mobility)” value (dsDNA) of the same molecule?
**A.** bound dsDNA

**Q.** With “FLEEIRLSLESGQDVKLSGF (listed as Haemophilus influenzae) [A3, amino acids 31 to 50 of IHF]” as the molecule, how does the “immune recognition of 20-mer peptides” value [1] read?
**A.** greatest recognition

**Q.** Which “immune recognition of 20-mer peptides” value [2] does the source give for “RGFGSFSLHHRQPRLGRNPK (listed as Haemophilus influenzae) [B4, 46 to 65 of IHF]” here?
**A.** greatest immune recognition

**Q.** Which “immune recognition of 20-mer peptides” value [2] does the source give for “RPGRNPKTGDVVPVSARRVV (listed as Haemophilus influenzae) [A5, amino acids 61 to 80 of IHF]” here?
**A.** greatest immune recognition

B1: TRL295: antibody, HC SEQ ID NO: 413, LC SEQ ID NO: 414 (antibody, V domains shown)
VH: QVQLVESGGGLVQPGGSLRLSCAASGFPFSSYAMSWVRQAPGKGLEWVSAISGNGADSYYADSVKGRFTTSRDKSKNTVYLQMNRLRAEDTAVYYCAKDMRRYHYDSSGLHFWGQGTLVTVSS
VL: DIELTQAPSVSVYPGQTARITCSGDALPKQYAYWYQQKPGQAPVVVIYKDSERPSGISERFSGSSSGTTVTLTISGVQAGDEADYYCQSVDTSVSYYVVFGGGTKLTVL
**Q.** Which epitope bound [3] does the source give for B1 here?
**A.** bind to residues 61-80

B2: TRL1330: antibody, HC SEQ ID NO: 439, LC SEQ ID NO: 440 (antibody, V domains shown)
VH: QVQLVESGTEVKNPGASVKVSCTASGYKFDEYGVSWVRQSPGQGLEWMGWISVYNGKTNYSQNFQGRLTLTTETSTDTAYMELTSLRPDDTAVYYCATDKNWFDPWGPGTLVTVSS
VL: DIVLTQSPSASGSPGQSITISCTGTNTDYNYVSWYQHHPGKAPKVIIYDVKKRPSGVPSRFSGSRSGNTATLTVSGLQTEDEADYYCVSYADNNHYVFGSGTKVTVL
**Q.** For B2, which “binding for fragment […]” value (Staphylococcus aureus HU; SEQ ID NO: 455) is on record?
**A.** high affinity binding

B3: TRL1338: antibody, HC SEQ ID NO: 445, LC SEQ ID NO: 446 (antibody, V domains shown)
VH: QVQLTLRESGPTLVKPTQTLTLTCTFSGFSLSTNGVGVGWIRQPPGKALEWLAIIYWDDDKRYSPSLKSRLTITKDTSKNQVVLTLTNMDPVDTGTYYCAHILGASNYWTGYLRYYFDYWGQGTLVTVST
VL: DIEMTQSPSVSVSPGQTARITCSGEPLAKQYAYWYQQKSGQAPVVVIYKDTERPSGIPERFSGSSSGTTVTLTISGVQAEDEADYHCESGDSSGTYPVFGGGTKLTVL
**Q.** With B3 as the molecule, how does the “binding for fragment VPAFKAGKALKDAVK” value (Staphylococcus aureus HU; SEQ ID NO: 456) read?
**A.** high affinity binding
